Consider 23 molecules from patent publication US20240368177A1, “5-AMINO-6,8-DIHYDRO-1H-FURO[3,4-d]PYRROLO[3,2-b]PYRIDINE-2-CARBOXAMIDE DERIVATIVES AS MTA-COOPERATIVE INHIBITORS OF PRMT5” (BeiGene Switzerland GmbH, priority 2023, published 2024).

Assay [1] relates to HCT116-mock-RNA-KO. Description: Cell killing in HCT116 isogenic pair (Cell Titer-Glo viability), mock knock-out cells with MTAP wildtype genotype. Type of assay: cell-based, human. As to conditions: 6 days incubation, 0-10 μM. In outline:
(§1)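 HCT116 MTAP-knockout or mock-knockout (MTAP wildtype) cells in RPMI 1640 with 10% FBS were seeded overnight, then exposed to test compound at 0–10 μM final for 6 days at 37° C. Viability was measured by CellTiter-Glo luminescence and IC50 was fitted.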
On the technique in general: In ATP-based viability assays light output follows the ATP content of the culture.

Assay [2] concerns HCT116-MTAP-KO. The assay is described as follows: Cell killing in HCT116 isogenic pair (Cell Titer-Glo viability), MTAP knock-out cells. As to conditions: 6 days incubation, 0-10 μM, * = more than 50% viability inhibition at tested concentration without a full curve. The assay is classed as cell-based, human. The method in brief:
as §1

For orientation: IC50 means the concentration that gives 50% inhibition. The low end stands for higher potency, the high end for lower potency.

In the case of `COCCN(C(=O)c1cc2nc(N)c3c(c2[nH]1)COC3)[C@@H](C)c1ncc(C(F)(F)F)cc1F` [Example 158, (S)-5-amino-N-(1-(3-fluoro-5-(trifluoromethyl)pyridin-2-yl)ethyl)-N-(2-methoxyethyl)-6,8-dihydro-1H-furo[3,4-d]pyrrolo[3,2-b]pyridine-2-carboxamide], the IC50 in assay [1] (Homo sapiens, HCT-116, 144 h) is over 10000 nM; in assay [2] (Homo sapiens, HCT-116, 144 h), 2020 nM.

For the molecule `C[C@H](c1ccc(C2CC2)cn1)N(C(=O)c1cc2nc(N)c3c(c2[nH]1)COC3)C1CCC1` [Example 159, (R)-5-amino-N-cyclobutyl-N-(1-(5-cyclopropylpyridin-2-yl)ethyl)-6,8-dihydro-1H-furo[3,4-d]pyrrolo[3,2-b]pyridine-2-carboxamide], the IC50 was determined as 2580 nM in assay [1] (Homo sapiens, HCT-116, 144 h) and 36 nM in assay [2] (Homo sapiens, HCT-116, 144 h).

With `C[C@@H](c1ccc(C2CC2)cn1)N(C(=O)c1cc2nc(N)c3c(c2[nH]1)COC3)C1CCC1` [Example 160, (S)-5-amino-N-cyclobutyl-N-(1-(5-cyclopropylpyridin-2-yl)ethyl)-6,8-dihydro-1H-furo[3,4-d]pyrrolo[3,2-b]pyridine-2-carboxamide], the IC50 was over 10000 nM in assay [1] (Homo sapiens, HCT-116, 144 h) and 598 nM in assay [2] (Homo sapiens, HCT-116, 144 h).

As to `CCN(C(=O)c1cc2nc(N)c3c(c2[nH]1)COC3)[C@@H]1COC2(CC2)c2cc(C(F)(F)F)ccc21` [Example 161, (S)-5-amino-N-ethyl-N-(7′-(trifluoromethyl)spiro[cyclopropane-1,1′-isochroman]-4′-yl)-6,8-dihydro-1H-furo[3,4-d]pyrrolo[3,2-b]pyridine-2-carboxamide], the half-inhibitory concentration (IC50) in assay [1] (Homo sapiens, HCT-116, 144 h) stood at 2800 nM; in assay [2] (Homo sapiens, HCT-116, 144 h), 39 nM.

As for `CN(C(=O)c1cc2nc(N)c3c(c2[nH]1)COC3)[C@@H]1CCOc2cc(C(F)(F)F)ccc21` [Example 162, (R)-5-amino-N-methyl-N-(7-(trifluoromethyl)chroman-4-yl)-6,8-dihydro-1H-furo[3,4-d]pyrrolo[3,2-b]pyridine-2-carboxamide], the IC50 in assay [1] (Homo sapiens, HCT-116, 144 h) was over 10000 nM; in assay [2] (Homo sapiens, HCT-116, 144 h), 186 nM.

Consider `CN(C(=O)c1cc2nc(N)c3c(c2[nH]1)COC3)[C@H]1COCc2cc(C(F)(F)F)cnc21` [Example 163, (R)-5-amino-N-methyl-N-(3-(trifluoromethyl)-7,8-dihydro-5H-pyrano[4,3-b]pyridin-8-yl)-6,8-dihydro-1H-furo[3,4-d]pyrrolo[3,2-b]pyridine-2-carboxamide], for which the IC50 was over 10000 nM in assay [1] (Homo sapiens, HCT-116, 144 h) and over 10000 nM in assay [2] (Homo sapiens, HCT-116, 144 h).

Consider `CN(C(=O)c1cc2nc(N)c3c(c2[nH]1)COC3)[C@@H]1COCc2cc(C(F)(F)F)cnc21` [Example 164, (S)-5-amino-N-methyl-N-(3-(trifluoromethyl)-7,8-dihydro-5H-pyrano[4,3-b]pyridin-8-yl)-6,8-dihydro-1H-furo[3,4-d]pyrrolo[3,2-b]pyridine-2-carboxamide], for which the IC50 was over 10000 nM in assay [1] (Homo sapiens, HCT-116, 144 h) and 145 nM in assay [2] (Homo sapiens, HCT-116, 144 h).

Turning to `C[C@H]1OCc2c1c(N)nc1cc(C(=O)N(C)[C@@H]3COC4(CC4)c4cc(C(F)(F)F)ccc43)[nH]c21` [Example 165, (R)-5-amino-N,6-dimethyl-N—((S)-7′-(trifluoromethyl)spiro[cyclopropane-1,1′-isochroman]-4′-yl)-6,8-dihydro-1H-furo[3,4-d]pyrrolo[3,2-b]pyridine-2-carboxamide], the 50% inhibitory concentration (IC50) is 2570 nM in assay [1] (Homo sapiens, HCT-116, 144 h) and 17 nM in assay [2] (Homo sapiens, HCT-116, 144 h).

For the molecule `CCN(C(=O)c1cc2nc(N)c3c(c2[nH]1)CO[C@@H]3C)[C@@H]1COC2(CC2)c2cc(C(F)(F)F)ccc21` [Example 166, (R)-5-amino-N-ethyl-6-methyl-N—((S)-7′-(trifluoromethyl)spiro[cyclopropane-1,1′-isochroman]-4′-yl)-6,8-dihydro-1H-furo[3,4-d]pyrrolo[3,2-b]pyridine-2-carboxamide], the IC50 came out at 2150 nM in assay [1] (Homo sapiens, HCT-116, 144 h) and 19 nM in assay [2] (Homo sapiens, HCT-116, 144 h).

As for `CN(C(=O)c1cc2nc(N)c3c(c2[nH]1)COC3)[C@H]1COC2(CC2)c2cc(C(F)(F)F)cc(F)c21` [Example 167, (R)-5-amino-N-(5′-fluoro-7′-(trifluoromethyl)spiro[cyclopropane-1,1′-isochroman]-4′-yl)-N-methyl-6,8-dihydro-1H-furo[3,4-d]pyrrolo[3,2-b]pyridine-2-carboxamide], the IC50 in assay [1] (Homo sapiens, HCT-116, 144 h) was found to be 3320 nM; in assay [2] (Homo sapiens, HCT-116, 144 h) it was 697 nM.

As for `CN(C(=O)c1cc2nc(N)c3c(c2[nH]1)COC3)[C@@H]1COC2(CC2)c2cc(C(F)(F)F)cc(F)c21` [Example 168, (S)-5-amino-N-(5′-fluoro-7′-(trifluoromethyl)spiro[cyclopropane-1,1′-isochroman]-4′-yl)-N-methyl-6,8-dihydro-1H-furo[3,4-d]pyrrolo[3,2-b]pyridine-2-carboxamide], the IC50 stood at 2110 nM in assay [1] (Homo sapiens, HCT-116, 144 h) and 8.4 nM in assay [2] (Homo sapiens, HCT-116, 144 h).

Regarding `C[C@H]1OCc2c1c(N)nc1cc(C(=O)N(C)[C@H]3COC4(CC4)c4cc(C(F)(F)F)cc(F)c43)[nH]c21` [Example 169, (R)-5-amino-N—((R)-5′-fluoro-7′-(trifluoromethyl)spiro[cyclopropane-1,1′-isochroman]-4′-yl)-N,6-dimethyl-6,8-dihydro-1H-furo[3,4-d]pyrrolo[3,2-b]pyridine-2-carboxamide], the half-inhibitory concentration (IC50) in assay [1] (Homo sapiens, HCT-116, 144 h) came out at 2110 nM; in assay [2] (Homo sapiens, HCT-116, 144 h), 565 nM.

As for `C[C@H]1OCc2c1c(N)nc1cc(C(=O)N(C)[C@@H]3COC4(CC4)c4cc(C(F)(F)F)cc(F)c43)[nH]c21` [Example 170, (R)-5-amino-N—((S)-5′-fluoro-7-(trifluoromethyl)spiro[cyclopropane-1,1′-isochroman]-4′-yl)-N,6-dimethyl-6,8-dihydro-1H-furo[3,4-d]pyrrolo[3,2-b]pyridine-2-carboxamide], the IC50 in assay [1] is 1010 nM; in assay [2] it was 4.4 nM.

With `C[C@H]1OCc2c1c(N)nc1cc(C(=O)N(C)[C@@H]3COC4(CC4)c4cc(C5CC5)ccc43)[nH]c21` [Example 171, (R)-5-amino-N—((S)-7′-cyclopropylspiro[cyclopropane-1,1′-isochroman]-4′-yl)-N,6-dimethyl-6,8-dihydro-1H-furo[3,4-d]pyrrolo[3,2-b]pyridine-2-carboxamide], the IC50 in assay [1] (Homo sapiens, HCT-116, 144 h) stood at 3030 nM; in assay [2] (Homo sapiens, HCT-116, 144 h), 39 nM.

As for `CN(C(=O)c1cc2nc(N)c3c(c2[nH]1)COC3)[C@@H]1COC2(CC2)c2cc(C3CC3)ccc21` [Example 172, (S)-5-amino-N-(7′-cyclopropylspiro[cyclopropane-1,1′-isochroman]-4′-yl)-N-methyl-6,8-dihydro-1H-furo[3,4-d]pyrrolo[3,2-b]pyridine-2-carboxamide], the IC50 amounted to 5050 nM in assay [1] (Homo sapiens, HCT-116, 144 h) and 33 nM in assay [2] (Homo sapiens, HCT-116, 144 h).

Take `C[C@H](c1ccc(C2CC2)cc1F)N(C)C(=O)c1cc2nc(N)c3c(c2[nH]1)COC3` [Example 173, (R)-5-amino-N-(1-(4-cyclopropyl-2-fluorophenyl)ethyl)-N-methyl-6,8-dihydro-1H-furo[3,4-d]pyrrolo[3,2-b]pyridine-2-carboxamide]: the 50% inhibitory concentration (IC50) in assay [1] (Homo sapiens, HCT-116, 144 h) stood at 5920 nM; in assay [2] (Homo sapiens, HCT-116, 144 h), 67 nM.

`C[C@@H](c1ccc(C2CC2)cc1F)N(C)C(=O)c1cc2nc(N)c3c(c2[nH]1)COC3` [Example 174, (S)-5-amino-N-(1-(4-cyclopropyl-2-fluorophenyl)ethyl)-N-methyl-6,8-dihydro-1H-furo[3,4-d]pyrrolo[3,2-b]pyridine-2-carboxamide]: the 50% inhibitory concentration (IC50) in assay [1] (Homo sapiens, HCT-116, 144 h) came out at 6070 nM; in assay [2] (Homo sapiens, HCT-116, 144 h) it was 478 nM.

With `CCN(C(=O)c1cc2nc(N)c3c(c2[nH]1)CO[C@@H]3C)[C@H](C)c1ccc(C2CC2)cc1F` [Example 175, (R)-5-amino-N—((R)-1-(4-cyclopropyl-2-fluorophenyl)ethyl)-N-ethyl-6-methyl-6,8-dihydro-1H-furo[3,4-d]pyrrolo[3,2-b]pyridine-2-carboxamide], the IC50 in assay [1] (Homo sapiens, HCT-116, 144 h) is 704 nM; in assay [2] (Homo sapiens, HCT-116, 144 h), 14 nM.

With `CCN(C(=O)c1cc2nc(N)c3c(c2[nH]1)CO[C@@H]3C)[C@@H](C)c1ccc(C2CC2)cc1F` [Example 176, (R)-5-amino-N—((S)-1-(4-cyclopropyl-2-fluorophenyl)ethyl)-N-ethyl-6-methyl-6,8-dihydro-1H-furo[3,4-d]pyrrolo[3,2-b]pyridine-2-carboxamide], the half-maximal inhibitory concentration (IC50) in assay [1] (Homo sapiens, HCT-116, 144 h) turned out to be 1780 nM; in assay [2] (Homo sapiens, HCT-116, 144 h) it was 452 nM.

`CCN(C(=O)c1cc2nc(N)c3c(c2[nH]1)COC3)[C@H](C)c1ccc(C2CC2)cc1F` [Example 177, (R)-5-amino-N-(1-(4-cyclopropyl-2-fluorophenyl)ethyl)-N-ethyl-6,8-dihydro-1H-furo[3,4-d]pyrrolo[3,2-b]pyridine-2-carboxamide]: the concentration for half-maximal inhibition (IC50) in assay [1] (Homo sapiens, HCT-116, 144 h) is 2690 nM; in assay [2] (Homo sapiens, HCT-116, 144 h), 74 nM.

Consider `CCN(C(=O)c1cc2nc(N)c3c(c2[nH]1)COC3)[C@@H](C)c1ccc(C2CC2)cc1F` [Example 178, (S)-5-amino-N-(1-(4-cyclopropyl-2-fluorophenyl)ethyl)-N-ethyl-6,8-dihydro-1H-furo[3,4-d]pyrrolo[3,2-b]pyridine-2-carboxamide], for which the 50% inhibitory concentration (IC50) in assay [1] (Homo sapiens, HCT-116, 144 h) was 3270 nM; in assay [2] (Homo sapiens, HCT-116, 144 h), 1040 nM.

As to `CN(C(=O)c1cc2nc(N)c3c(c2[nH]1)COC3)[C@@H]1COC2(CC2)c2cc(Br)ccc21` [Example 179, (S)-5-amino-N-(7′-bromospiro[cyclopropane-1,1′-isochroman]-4′-yl)-N-methyl-6,8-dihydro-1H-furo[3,4-d]pyrrolo[3,2-b]pyridine-2-carboxamide], the half-maximal inhibitory concentration (IC50) came to 4390 nM in assay [1] (Homo sapiens, HCT-116, 144 h) and 24 nM in assay [2] (Homo sapiens, HCT-116, 144 h).

In the case of `C[C@H]1OCc2c1c(N)nc1cc(C(=O)N(C)[C@@H]3COC4(CC4)c4cc(Br)ccc43)[nH]c21` [Example 180, (R)-5-amino-N—((S)-7′-bromospiro[cyclopropane-1,1′-isochroman]-4′-yl)-N,6-dimethyl-6,8-dihydro-1H-furo[3,4-d]pyrrolo[3,2-b]pyridine-2-carboxamide], the IC50 in assay [1] (Homo sapiens, HCT-116, 144 h) stood at 3570 nM; in assay [2] (Homo sapiens, HCT-116, 144 h), 20 nM.
